Test results published in US20100223737A1, “ORGANIC CATALYST WITH ENHANCED ENZYME COMPATIBLITY” (priority 2009, published 2010).

How the values were obtained:
Format in all cases: biochemical
[1] = system: Termamyl, Duramyl and Natalase; assay: Organic Catalyst/Enzyme Compatibility Test, average of the three enzymes; settings: ECV=(ECVter+ECVdur+ECVnat)/3; [Peracetic Acid]=5.0 ppm; [organic catalyst]=0.5 ppm
Natalase = assay: Organic Catalyst/Enzyme Compatibility Test (alpha amylase activity assay), Natalase; settings: (Ac/Ab)x100; [Peracetic Acid]=5.0 ppm; [organic catalyst]=0.5 ppm; 40° C.; sample at 7 minutes 45 seconds
Duramyl = assay: Organic Catalyst/Enzyme Compatibility Test (alpha amylase activity assay), Duramyl; settings: (Ac/Ab)x100; [Peracetic Acid]=5.0 ppm; [organic catalyst]=0.5 ppm; 40° C.; sample at 7 minutes 45 seconds

Substance	Enzyme Compatibility Values ECV [1]	Enzyme Compatibility Values ECVnat (Natalase)	Enzyme Compatibility Values ECVdur (Duramyl)
Sulfuric acid mono-[2-(3,4-dihydro-isoquinolin-2-yl)-1-(2-butyloctyloxymethyl)-ethyl]ester, internal salt [Entry 4]	101	102	101
Sulfuric acid mono-[2-(3,4-dihydro-isoquinolin-2-yl)-1-(2-propylheptyloxymethyl)-ethyl]ester, internal salt [Entry 3]	99	99	101
